Assay results as given in PMC6442233, “SAR and molecular mechanism studies of monoamine oxidase inhibition by selected chalcone analogs” (Journal of Enzyme Inhibition and Medicinal Chemistry, 2019).

Experiments:
[1] = target: T1, human MAO-B (Homo sapiens, UniProt P27338); assay: IC50 determination for MAO-B inhibition (kynuramine, fluorescence); type: biochemical; conditions: for Selectivity index: SI = IC50(MAO-A)/IC50(MAO-B); for IC50: recombinant hMAO-B, kynuramine 50 μM, mean ± SD (triplicate)
T1 construct: purchased Sigma-Aldrich
T1 sequence (P27338 1-520): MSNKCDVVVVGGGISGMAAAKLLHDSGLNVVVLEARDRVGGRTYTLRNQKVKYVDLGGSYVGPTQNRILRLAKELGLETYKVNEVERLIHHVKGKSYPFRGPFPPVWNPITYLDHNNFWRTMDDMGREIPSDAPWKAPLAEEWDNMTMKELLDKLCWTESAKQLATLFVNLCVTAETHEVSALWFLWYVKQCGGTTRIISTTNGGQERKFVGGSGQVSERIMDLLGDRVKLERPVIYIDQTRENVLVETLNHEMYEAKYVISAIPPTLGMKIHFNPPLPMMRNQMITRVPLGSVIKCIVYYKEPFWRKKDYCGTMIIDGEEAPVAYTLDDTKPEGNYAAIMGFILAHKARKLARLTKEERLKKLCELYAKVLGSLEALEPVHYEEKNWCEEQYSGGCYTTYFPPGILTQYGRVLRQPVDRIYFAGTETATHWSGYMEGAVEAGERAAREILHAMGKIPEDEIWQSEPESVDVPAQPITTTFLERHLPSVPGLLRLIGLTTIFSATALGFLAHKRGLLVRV
Method: (§1) IC50 values for the inhibition of MAO were determined by using the recombinant human MAO-A and MAO-B enzymes (Sigma-Aldrich). Enzyme reactions were performed at a final volume of 200 µL in white 96-well microplates (Eppendorf), with the reaction solvent consisting of potassium phosphate buffer (100 mM, pH 7.4, adjusted to isotonicity with KCl). The reactions contained the nonselective MAO substrate, kynuramine (50 μM), and the test inhibitors at 0.003–100 µM. The test compounds were initially dissolved in DMSO (100%), and after addition to the reactions yielded a concentration of 4% DMSO. Control reactions were included, which contained substrate and 4% DMSO but no test inhibitor. The MAO reactions were started by adding MAO-A (0.0075 mg protein/mL) or MAO-B (0.015 mg protein/mL), and were subsequently incubated for a period of 20 min (37 °C) in a convection oven. A volume of 80 µL 2 N sodium hydroxide was added to the reactions, and the fluorescence intensity of 4-hydroxyquinoline (the end-product of the MAO-catalyzed metabolism of kynuramine) in the reactions was measured at λex 310 and λem 400 nm. To quantify 4-hydroxyquinoline, a calibration curve (linear) ranging from 0.047 to 1.56 μM, was employed. […] These measurements were carried out in triplicate and the IC50 values are presented as the mean ± standard deviation (SD)[18].
(§2) The formation of the dihydropyridinium species (MMDP^+) as a MAO-catalyzed oxidation product of MMTP was monitored at 420 nm. […] Based on this, the IC50 values were determined using kynuramine as a nonselective substrate. The rate of oxidation of kynuramine by MAO was monitored by measuring the fluorescence of the oxidation product, 4-hydroxyquinoline (λex= 310 nm; λem= 400 nm).

[2] = target: T2, human MAO-A (Homo sapiens, UniProt P21397); assay: IC50 determination for MAO-A inhibition (kynuramine, fluorescence); type: biochemical; conditions: recombinant hMAO-A, kynuramine 50 μM, mean ± SD (triplicate)
T2 construct: purchased Sigma-Aldrich
T2 sequence (P21397 1-527): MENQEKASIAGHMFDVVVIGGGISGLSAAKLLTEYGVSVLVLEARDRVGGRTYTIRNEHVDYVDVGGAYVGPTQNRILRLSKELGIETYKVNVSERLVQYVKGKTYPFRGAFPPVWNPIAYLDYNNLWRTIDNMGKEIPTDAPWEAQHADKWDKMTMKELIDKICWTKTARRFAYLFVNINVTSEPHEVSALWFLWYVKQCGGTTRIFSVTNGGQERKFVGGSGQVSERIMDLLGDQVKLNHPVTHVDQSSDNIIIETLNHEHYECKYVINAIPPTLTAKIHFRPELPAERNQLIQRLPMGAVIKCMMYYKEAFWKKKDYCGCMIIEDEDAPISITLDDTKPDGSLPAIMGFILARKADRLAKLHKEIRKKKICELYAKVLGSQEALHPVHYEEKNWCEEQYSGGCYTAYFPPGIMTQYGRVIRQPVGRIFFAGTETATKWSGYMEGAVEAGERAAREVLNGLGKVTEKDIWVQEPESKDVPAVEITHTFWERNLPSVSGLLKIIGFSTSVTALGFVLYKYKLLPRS
Method: as §1, §2

[3] = test system: Rat hepatoma (H4IIE) cells; assay: Dopamine assay in H4IIE cells (HPLC with electrochemical detection); type: cell-based; conditions: 70 µM compound, 50 µM L-DOPA
Method: (§3) Rat hepatoma (H4IIE) cells were purchased from American Type Culture Collection (ATCC). H4IIE cells are from rat liver, and contain both MAO-A and MAO-B in approximately equal levels. Cells were cultured in Eagle’s minimum essential medium (EMEM) supplemented with 10% fetal bovine serum (FBS) and 1% streptomycin/penicillin at 37 °C in a 5% CO2 humidified incubator. Cells were plated at a cell density of 3.0 × 10^5 cells in each well of six well plates. Upon 80% confluence, the cells were washed with phosphate buffered saline (PBS) and the media were changed to HBSS supplemented with 10 mM HEPES and 5 mM D-glucose, pH 7.4. These media also contained calcium chloride (1.26 mM) and magnesium chloride (0.5 mM). Cells were then treated with tolcapone (1 0^−6 M), a catechol-O-methyltransferase (COMT) inhibitor to protect dopamine from enzymatic degradation, 20 min prior to starting the experiment. The cells were treated with the negative vehicle control (1% DMSO) or 70 µM of the MAO-B inhibitors (compounds 12, 14, 16, and 17) with the DMSO concentration also being 1%. The cells were subsequently treated with L-DOPA (50 µM). To measure dopamine release and MAO-B gene expression, both the cells and media were collected at 0, 30, 60, and 120 min after treatment. Dopamine level was measured in the supernatant aspirated from the cells by using high performance liquid chromatography (HPLC), while the cells were lysed with trizol for RNA extraction and subsequent gene expression studies.
Rat hepatoma cells (H4IIE) were treated with 1% DMSO (vehicle-control), compounds 12, 14, 16, or 17 for different time points at a concentration of 70 µM of each compound along with 50uM L-DOPA.
The concentrations of dopamine were detected using a CoulArray electrochemical array detector system as described previously. Briefly, supernatants obtained from cell culture were filtered using 0.22 μm filter. The filtrates were subsequently injected onto a C18 column (3.2 × 150 mm, 3 μm particle size, Thermo Scientific). The mobile phase consisted of a mixture of 54.3 mM sodium phosphate, 0.215 mM octyl sodium sulfate, 0.32 mM citric acid and 11% methanol. Dopamine concentrations were measured with the CoulArray Electrochemical Array Detector. The chromatograms were analyzed using the CoulArray software. A standard calibration curve was determined using different concentrations of an external standard dopamine (SigmaAldrich).
(§4) One-way ANOVA followed by Dunnett’s test (compared to the vehicle-control) was used to analyze the data obtained for the dopamine concentrations for compounds 12, 14, 16, and 17targeting MAO-B at 0, 30, 60, and 120 min. One-way ANOVA followed by Newman–Keuls multiple comparison tests was used to analyze time-dependent effects of compounds 14 and 17 on the relative mRNA expression (triplicate) of MAO-B enzyme.

[4] = test system: MAO-B mRNA expression; assay: MAO-B mRNA expression in H4IIE cells (qRT-PCR); type: cell-based, rat; conditions: 70 µM
Method: as §3
Total RNA was isolated using the Trizol agent (Invitrogen). One μg of RNA from each sample was reverse transcribed to cDNA using the M-MLV reverse transcriptase kit, according to the manufacturer’s instruction (Promega). PowerUp SYBR green master mix (Life technologies) was used for quantitative real-time polymerase chain reaction (qRT-PCR) for analysis of gene expression. The following primers were used (IDTs) MAO-B forward, […]; MAO-B reverse, […]; β-actin forward, […] and β-actin reverse, […]. qRT-PCR was performed in a 384 well plates with the Quant Studio-5 instrument (Applied Biosystems). Samples were carried out in triplicate in a 10 µL reaction volume using the following cycling conditions: UDG activation for one cycle at 50 °C for 2 min, followed by a single cycle at 95 °C for 2 min, then 40 cycles of denaturation at 95 °C for 15 s, and annealing at 60 °C for 1 min. β-actin was used as a loading control and gene expression was calculated using the 2^-ΔΔCT method as described previously.
as §4

[5] = target: T2, human MAO-A; assay: Reversibility of MAO-A inhibition by dialysis; type: biochemical; conditions: for Reversibility of MAO-A inhibition: dialysis 24 h, inhibitor at 4 × IC50
Method: (§5) The reversibility of inhibition of MAO by compound 16 was investigated by dialysis. Dialysis cassettes (Slide-A-Lyzer®; Thermo Scientific) with a volume of 0.5–3 mL and a molecular weight cutoff of 10,000 were used for the dialysis. […] The volume of these mixtures was 0.8 mL, and contained 4% DMSO. The mixtures were pre-incubated for 15 min at 37 °C and then dialyzed at 4 °C in buffer (80 mL), using the above buffer as dialysis buffer. After 3 and 7 h of dialysis, the dialysis buffer was changed with fresh buffer. […] For comparison, incubations of the MAOs and the test inhibitor were prepared as above but were not dialyzed and kept at 4 °C over the same time period. These experiments were carried out in triplicate, and the remaining enzyme catalytic rates are reported as the mean (± SD).

[6] = target: T2, human MAO-A; assay: Lineweaver-Burk plots and Ki calculation, MAO-A; type: biochemical
Method: (§6) Sets of six Lineweaver–Burk plots each were prepared to determine if the inhibition of MAO-A and MAO-B by compound 16 is competitive. […] The substrate, kynuramine, was used at concentrations ranging from 15 to 250 μM, whereas the final enzyme concentration was 0.015 mg protein/mL. […] Ki values were estimated by graphing the slopes of the Lineweaver–Burk plots against inhibitor concentration. The intercept of the x-axis is equal to –Ki.

[7] = target: T1, human MAO-B; assay: Lineweaver-Burk plots and Ki calculation, MAO-B; type: biochemical
Method: as §6

[8] = target: T1, human MAO-B; assay: Reversibility of MAO-B inhibition by dialysis; type: biochemical
Method: as §5

[9] = Lineweaver-Burk plots cross on the y-axis
[10] = slopes of Lineweaver-Burk plots vs inhibitor concentration, kynuramine 15-250 μM
[11] = 4 × IC50, incubated 15 min, dialyzed 24 h, compared to negative control (100%)
[12] = 4 × IC50, not dialyzed, compared to negative control (100%)

Structure (SMILES) | Selectivity index [1] | IC50 [1] | IC50 [2] | Dopamine concentration vs vehicle-control ([3]; 30 min) | Dopamine concentration vs vehicle-control ([3]; 60 min) | Dopamine concentration vs vehicle-control ([3]; 120 min) | Relative MAO-B mRNA expression vs negative control ([4]; 0 min) | Relative MAO-B mRNA expression vs negative control ([4]; 30 min) | Relative MAO-B mRNA expression vs negative control ([4]; 60 min) | melting point | Reversibility of MAO-A inhibition [5] | also measured
O=C(/C=C/c1ccc(F)cc1)c1ccc2c(c1)OCO2 [Compound 14, (E)-1-(benzo[d][1,3]dioxol-5-yl)-3–(4-fluorophenyl)prop-2-en-1-one] | 11 | 0.043 ± 0.004 µM | 0.506 ± 0.052 µM | increased | elevation | increase | no significant changes | reduced | no significant changes | 126 to 130 °C |  | Relative MAO-B mRNA expression vs negative control ([4]; 120 min): decreased; Relative MAO-B mRNA expression vs 0 min time point ([4]; 120 min exposure): decreased
O=C(/C=C/c1ccc([N+](=O)[O-])cc1)c1ccc2c(c1)OCO2 [Compound 17, (E)-1-(benzo[d][1,3]dioxol-5-yl)-3–(4-nitrophenyl)prop-2-en-1-one] | 13 | 0.069 ± 0.004 µM | 0.927 ± 0.121 µM | increased | elevation | increase | no significant changes | reduced | no significant changes | 172 to 175 °C |  | Relative MAO-B mRNA expression vs 0 min time point ([4]; 30 min exposure): reduced; Relative MAO-B mRNA expression vs 0 min time point ([4]; 60 min exposure): reduced
C#CCN(C)Cc1ccccc1 [Pargyline, reference compound] |  |  |  |  |  |  |  |  |  |  | dialysis failed to restore catalytic activity | 
O=C(/C=C/c1ccc(Cl)cc1)c1ccc2c(c1)OCO2 [Compound 16, (E)-1-(benzo[d][1,3]dioxol-5-yl)-3–(4-chlorophenyl)prop-2-en-1-one] | 3.0 | 0.05 ± 0.002 µM | 0.149 ± 0.011 µM |  |  |  |  |  |  |  | reversibly inhibits | Mode of MAO-A inhibition [6, 9]: competitive; Ki [6, 10]: 47 nM; Mode of MAO-B inhibition [7, 9]: competitive; Ki [7, 10]: 20 nM; MAO-A activity after dialysis [5, 11]: 103%; MAO-A activity, undialyzed samples [5, 12]: 31%; MAO-B activity after dialysis [8, 11]: 105%; MAO-B activity, undialyzed samples [8, 12]: 34%; Reversibility of MAO-B inhibition ([8]; dialysis 24 h, inhibitor at 4 × IC50): reversibly inhibits
